Reference: patent publication US20070015138A1, “Methods for identifying agents and conditions that modulate neurogenesis” (BrainCells, Inc., priority 2005, published 2007)
“Also recorded” adds a separate entry of the source. Like-named read-outs stand apart in the source and are kept apart here.

Key:
[1] = tested on: cultured human neural stem cells (hNSCs); assay: Automated differentiation assay using monolayer cultures, neuronal lineage (Tuj1 staining per Hoechst-counted cell); assay type: cell-based; settings: for concentration at which the agent by itself affected neuronal differentiation / effect on differentiation along a neuronal lineage, agent by itself: no constitutive factor; for effect on differentiation along a neuronal lineage, agent by itself: normalized to neuronal positive control; for effect on neuronal differentiation, AMPA combined with M6: AMPA about 3 nM to about 10 μM plus 10 μM M6 (cyclo-(Pro-Gly)), FIG. 5; for EC50: Homo sapiens, Neural stem cell
Description: (§1) Cells were cultured in mitogen free test media or exposed to differentiating agents as described herein immediately upon plating of cells. Stable, differentiation-compatible culture may be used with automated equipment (like Perkin Elmer Evolution P3, Perkin Elmer Multiprobe II Plus and Bio-Tek ELx405 Select CW as non-limiting examples) to replace 50% of media with newly prepared media and differentiation agent between 3 to 4 days after commencement of the experiment.
(§2) Measurement of the resulting NSC differentiation may be performed by fixation and staining as described herein and subsequent use of automated equipment (InCell Analyzer high throughput imaging system) to take multiple pictures per well, at multiple wavelengths. Quantification of neuronal differentiation was performed by measuring the amount of Tuj1 staining and dividing the number by the number of cells as determined through automated counting of Hoechst stained cell nuclei. Quantification of astocytic differentiation was performed by measuring the amount of GFAP staining and dividing the number by the number of cells as determined through automated counting of Hoechst stained cell nuclei. […] An agent's effect on astrocyte or oligodendrocyte differentiation can be determined in a similar manner using other cell type specific antibodies, examples of which include GFAP (astrocytes), NF-200 (neurons), and O1 and O4 (oligodendrocytes).

[2] = tested on: cultured human neural stem cells (hNSCs); assay: Automated differentiation assay using monolayer cultures, astrocyte lineage (GFAP staining per Hoechst-counted cell); assay type: cell-based; settings: for effect on differentiation along an astrocyte lineage (astrogenesis), agent alone: normalized to astrocyte positive control
Description: as §1, §2

[3] = tested on: Human NSCs plated as monolayers
Description: Human NSCs maintained as neurospheres are plated as monolayers on laminin/poly-L-lysine coated plates and assayed for proliferation and/or differentiation, as described in Examples 3 and 4, except that the test media is modified to include one or more neurotransmitters at various concentrations to facilitate detection of neurogenesis modulating agents. […] Proliferation is measured as the mean cell intensity per microscopic field of view, with the mean cell intensity for control experiments subtracted. Data is plotted as a dose response curve of dopamine with and without 2 independent concentrations of 5-HTP.

[4] = tested on: human NSCs cultured as monolayers in 96-well plates; settings: DMSO vehicle max 0.3%, FIG. 8
Description: Briefly, cells were cultured as described in Example 5 with the presence of histamine. The histamine was dissolved in DMSO as a vehicle, and cells were exposed to a maximum concentration of 0.3% vehicle. Cell number was determined by fixation and exposure of cells to Hoechst stain. Image acquisition was automated with the use of an InCell Analyzer 1000, and the number of cells determined by automated counting of stained nuclei. […] (see FIG. 8).
Toxic effects of agents can be determined in a similar manner. NSCs were exposed to BAY-60-7550 as described above and cell number was quantified.

[5] = tested on: human NSCs in monolayer culture; assay: Automated proliferation (growth or trophism) assay using monolayer cultures, test media with mitogens; assay type: cell-based; settings: control conditions, across a range of concentrations; FIG. 1B
Description: Sterile, tissue culture treated, clear bottom 96-well plates (e.g., Costar 3712) are coated 10 μg/ml poly-L-lysine and 50 μg/ml mouse Laminin, as described in Example 2. 10-15 neurospheres in maintenance media (see, Example 2) are transferred (estimated at 100,000 cells/sphere) to an eppendorf tube and enzymatically dissociated as described in Example 2. Approximately 50,000 cells are plated per 100 μl/well. The cells are allowed to attach by incubating for approximately one hour, and 100 μl/well of test compounds are added. […] Compounds are prepared using Perkin-Elmer MultiPROBE II PLUSHT EX (Protocol 8-point HumanCRC96-well) in test media (30% Hams F12 (Gibco 11765-062), 70% DMEM (Gibco 11965-118), 1% PSA (Gibco-BRL 15420-062), 1% N2 (Gibco-BRL 17502-048), 20 ng/ml EGF (Sigma E9644), 10 ng/ml LIF (Chemicon LIF100), 20 ng/ml bFGF (R and D 233-FB) and 5 μg/ml heparin (Sigma H3149)).
Each plate contains controls containing test media (positive control) and test media without growth factors (negative control). Plates are incubated at 37° C. and 5% CO2 for a total of 7 days. At day 4, the cell plates are aspirated and fresh compound/media is added. After incubation, the wells are washed 1× with 0.1M Tris-Buffered Saline (TBS), and incubated at room temperature for 30 minutes with 100 μl/well of Fixing/Nuclear staining solution (8 μg/ml Hoechst 33342 and 3.7% Formaldehyde in 0.1M TBS). […]

N[C@@H](Cc1c[nH]c2ccc(O)cc12)C(=O)O [5-HTP, 5-Hydroxy L tryptophan]
concentration at which the agent by itself affected neuronal differentiation [1]: ≥ 4 µM | effect on differentiation along a neuronal lineage, agent by itself [1]: increased differentiation of NSCs into neurons; also recorded: significantly enhanced neuronal differentiation

Cc1onc(O)c1CC(N)C(=O)O (stereo not drawn) [AMPA, alpha-amino-3-hydroxy-5-methyl-4-isoxazolepropionic acid]
effect on neuronal differentiation, AMPA combined with M6 [1]: significantly enhanced levels of neuronal differentiation | concentration at which the agent by itself affected neuronal differentiation [1]: about 30 μM | effect on differentiation along a neuronal lineage, agent by itself [1]: only a slight effect

C[C@]12CC[C@H](O)CC1=CC[C@@H]1[C@@H]2CC[C@]2(C)C(=O)CC[C@@H]12 [DHEA]
effect on differentiation along a neuronal lineage, agent by itself [1]: promotes differentiation

CC(N)Cc1ccccc1 (stereo not drawn) [amphetamine]
EC50 ([1]; plus 10 μM dopamine, FIG. 2B, read-out: EC50, neuronal differentiation in combination with dopamine): ~30 µM | effect on differentiation along a neuronal lineage, agent by itself [1]: did not have a significant effect | effect on neuronal differentiation in combination with dopamine as constitutive factor ([1]; plus 10 μM dopamine): significantly enhanced neuronal differentiation

O=C1CC2(CCCC2)CC(=O)N1CCCCN1CCN(c2ncccn2)CC1 [buspirone]
effect on differentiation along a neuronal lineage, agent by itself [1]: promotes differentiation into both neurons and astrocytes | effect on differentiation along an astrocyte lineage (astrogenesis), agent alone [2]: promotes differentiation into both neurons and astrocytes

NCCc1ccc(O)c(O)c1 [dopamine]
concentration at which the agent by itself affected neuronal differentiation [1]: ≥ 1 µM | effect on differentiation along a neuronal lineage, agent by itself [1]: minor effect; also recorded: only a slight effect | effect on differentiation along a neuronal lineage, agent by itself ([1]; listed as Dopamine): did not promote differentiation | effect on neuronal differentiation in combination with 5-HTP as constitutive factor ([1]; plus 10 μM or 30 μM 5-HTP, FIG. 4B): concentration-dependent increase in NSC differentiation; also recorded: significantly enhanced neuronal differentiation | effect on NSC proliferation (mean cell intensity) with 10 μM 5-HTP ([3]; in the presence of 10 μM 5-HTP): substantially enhanced | effect on NSC proliferation (mean cell intensity) with 30 μM 5-HTP ([3]; in the presence of 30 μM 5-HTP, particularly at higher test agent concentrations): further enhanced | effect on NSC proliferation (mean cell intensity), test agent alone ([3]; media-only background subtracted): small dose-dependent effect

NCCc1c[nH]cn1 [histamine]
cell proliferation / cell growth (cell number), trophic effect [4]: promotes increased cell proliferation | cell proliferation / cell growth (cell number), trophic effect ([4]; listed as Histamine): promoted cell growth in a concentration-dependent manner

COc1ccc2[nH]cc(CCNC(C)=O)c2c1 [melatonin]
effect on neuronal differentiation, buspirone with melatonin ([1]; increasing melatonin added to buspirone concentration-response curve, FIG. 11 upper panel): differentiation into neurons is preserved | effect on astrocyte differentiation, buspirone with melatonin ([2]; increasing melatonin added to buspirone concentration-response curve, FIG. 11 lower panel): repression of astrocytes | effect on differentiation along an astrocyte lineage (astrogenesis), agent alone [2]: no effect on astrogenesis

COC(=O)C(c1ccccc1)C1CCCCN1 (stereo not drawn) [methylphenidate]
concentration at which the agent by itself affected neuronal differentiation [1]: greater than 1 μM | effect on differentiation along a neuronal lineage, agent by itself [1]: only a slight effect | effect on neuronal differentiation in combination with dopamine as constitutive factor ([1]; plus 10 μM dopamine): significantly enhanced the degree of neuronal differentiation

CN1CC[C@]23c4c5ccc(O)c4O[C@H]2[C@@H](O)C=C[C@H]3[C@H]1C5 [morphine]
effect on DHEA-driven normal NSC neuronal differentiation (NSC monolayer culture; simultaneous exposure with DHEA): inhibition of normal NSC differentiation

O=C1CC[C@@]2(O)[C@H]3Cc4ccc(O)c5c4[C@@]2(CCN3CC2CC2)[C@H]1O5 [naltrexone]
toxicity or proliferation (cell number dose-response) [5]: non-neurogenic (non-tropic) and non-toxic; also recorded: neither toxic nor trophic | rescue of morphine-inhibited neuronal differentiation (NSC monolayer culture; cells exposed to both morphine and naltrexone, FIG. 10): rescue of neurogenesis; also recorded: rescues opioid-induced inhibition

NC[C@H](O)c1ccc(O)c(O)c1 [norepinephrine]
EC50 ([1]; mean of two independent experiments, FIG. 3A, read-out: EC50, neuronal differentiation, agent by itself): ~4 µM | effect on differentiation along a neuronal lineage, agent by itself [1]: significantly enhanced neuronal differentiation | effect on differentiation along an astrocyte lineage (astrogenesis), agent alone [2]: no effect

cyclo(Pro-Gly) [M6]
effect on neuronal differentiation, AMPA combined with M6 [1]: potentiates AMPA activity
